Assay: aqueous equilibrium solubility
Type: physicochemical
Settings: aqueous suspension on a rotator for 48 hours at room temperature; filtered 0.45-micrometer PTFE; HPLC
Description: The aqueous equilibrium solubility of 3-[4(1,2-diphenyl-but-1-enyl)-phenyl]-acrylic acid, a SERM compound, and its meglumine and lysine salts were determined by placing aqueous suspensions of the corresponding compound on a rotator for 48 hours at room temperature. The samples were filtered using a 0.45-micrometer PTFE filter and analyzed by HPLC. The pH of the filtrate was also determined.

| equilibrium aqueous solubility [mg/mL] | Compound |
| --- | --- |
| 0.0086 | CCC(=C(c1ccccc1)c1ccc(C=CC(=O)O)cc1)c1ccccc1 [3-[4(1,2-diphenyl-but-1-enyl)-phenyl]-acrylic acid (free aci] |
| 0.4 | CCC(=C(c1ccccc1)c1ccc(C=CC(=O)O)cc1)c1ccccc1 [3-[4(1,2-diphenyl-but-1-enyl)-phenyl]-acrylic acid (lysine s] |
| 0.7 | CCC(=C(c1ccccc1)c1ccc(C=CC(=O)O)cc1)c1ccccc1 [3-[4(1,2-diphenyl-but-1-enyl)-phenyl]-acrylic acid (meglumin] |
